Test results reported in ChEMBL document CHEMBL5154944, “Discovery of Aryloxyphenyl-Heptapeptide Hybrids as Potent and Selective Matrix Metalloproteinase-2 Inhibitors for the Treatment of Idiopathic Pulmonary Fibrosis” (J Med Chem, 2022).
Non-standard residues stand in square brackets, D forms with d. Residues, ends and D or L forms follow the SMILES beside them. *: point of attachment. Benzoyl(4-OPh(4-CONH2)) = NC(=O)c1ccc(Oc2ccc(C(=O)*)cc2)cc1; Benzenesulfonyl(4-OPh) = O=S(=O)(c1ccc(Oc2ccccc2)cc1)*; NMeI = CC[C@H](C)[C@H](NC)C(=O)O; NMeE = CN[C@@H](CCC(=O)O)C(=O)O; β3hP = O=C(O)C[C@@H]1CCCN1; Dab = NCC[C@H](N)C(=O)O; Ava = NCCCCC(=O)O; GABA = NCCCC(=O)O

What was measured:
[1] = Volume of distribution at steady state in fasted Sprague-Dawley rat at 0.4 mg/kg, iv by LC-MS/MS analysis; assay type: ADME, organism-based; conditions: in vivo, read-out: Vdss
[2] = target: Matrix metalloproteinase-9 (Homo sapiens, UniProt P14780)
[3] = Clearance in fasted Sprague-Dawley rat at 0.4 mg/kg, iv by LC-MS/MS analysis; assay type: ADME, organism-based; conditions: in vivo
Interstitial collagenase = target: T1, Interstitial collagenase (Homo sapiens, UniProt P03956); experiment: Inhibition of recombinant human MMP1 using MOCAc-Lys-Pro-Leu-Gly-Leu-A2pr(Dnp)-Ala-Arg-NH2 as substrate preincubated for 15 mins followed by substrate addition by fluroscence based assay
T1 sequence (P03956 whole entry): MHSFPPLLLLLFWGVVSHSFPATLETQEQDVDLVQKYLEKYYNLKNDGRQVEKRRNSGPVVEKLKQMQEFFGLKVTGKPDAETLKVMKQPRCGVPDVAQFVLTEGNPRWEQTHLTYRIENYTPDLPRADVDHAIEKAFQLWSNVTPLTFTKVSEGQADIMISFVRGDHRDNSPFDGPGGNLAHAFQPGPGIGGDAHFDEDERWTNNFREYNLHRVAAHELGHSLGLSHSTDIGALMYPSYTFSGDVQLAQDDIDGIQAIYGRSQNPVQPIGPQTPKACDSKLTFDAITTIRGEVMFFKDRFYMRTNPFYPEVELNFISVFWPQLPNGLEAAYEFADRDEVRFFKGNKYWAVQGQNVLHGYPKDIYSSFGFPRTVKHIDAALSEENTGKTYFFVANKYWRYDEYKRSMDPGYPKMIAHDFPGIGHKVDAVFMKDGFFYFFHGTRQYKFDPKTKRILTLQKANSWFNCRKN

[4] = target: MMP-2/MMP-14 (Homo sapiens) (UniProt P50281+P08253); experiment: Selectivity ratio of IC50 for recombinant human MMP14 to IC50 for recombinant human MMP2; assay type: protein assay
Stromelysin-1 = Stromelysin-1 (Homo sapiens, UniProt P08254); experiment: Inhibition of recombinant human MMP3 using MOCAc-Lys-Pro-Leu-Gly-Leu-A2pr(Dnp)-[…] as substrate preincubated for 15 mins followed by substrate addition by fluroscence based assay
Homo sapiens [5] = species on record: Homo sapiens; experiment: Selectivity ratio of IC50 for recombinant human MMP3 to IC50 for recombinant human MMP2
[6] = Metabolic stability in rat hepatocytes assessed as parent compound remaining incubated for 1 hr by LC-MS/MS; assay type: ADME, cell-based, Hepatocyte; conditions: read-out: Stability
Homo sapiens [7] = species on record: Homo sapiens; experiment: Selectivity ratio of IC50 for recombinant human MMP7 to IC50 for recombinant human MMP2
Homo sapiens [8] = species on record: Homo sapiens; experiment: Selectivity ratio of IC50 for recombinant human MMP8 to IC50 for recombinant human MMP2
Matrilysin = target: T2, Matrilysin (Homo sapiens, UniProt P09237)
T2 sequence (P09237 whole entry): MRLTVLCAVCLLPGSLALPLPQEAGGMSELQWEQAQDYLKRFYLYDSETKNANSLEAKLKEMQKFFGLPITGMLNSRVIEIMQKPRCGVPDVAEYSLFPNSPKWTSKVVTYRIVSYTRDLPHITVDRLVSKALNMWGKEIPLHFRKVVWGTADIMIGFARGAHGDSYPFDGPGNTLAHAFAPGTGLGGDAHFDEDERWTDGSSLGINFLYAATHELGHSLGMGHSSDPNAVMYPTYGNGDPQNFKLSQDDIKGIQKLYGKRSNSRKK

[9] = target: MMP-2/MMP-9 (Homo sapiens) (UniProt P08253+P14780); experiment: Selectivity ratio of IC50 for recombinant human MMP9 to IC50 for recombinant human MMP2; assay type: protein assay
[10] = target: MMP-1/MMP-2 (Homo sapiens) (UniProt P08253+P03956); experiment: Selectivity ratio of IC50 for recombinant human MMP1 to IC50 for recombinant human MMP2; assay type: protein assay
physchem [11] = conditions: buffer, pH 7.4
Homo sapiens [12] = species on record: Homo sapiens; experiment: Selectivity ratio of IC50 for recombinant human MMP12 to IC50 for recombinant human MMP2
Collagenase 3 = Collagenase 3 (Homo sapiens, UniProt P45452)
[13] = target: 72 kDa type IV collagenase (Homo sapiens, UniProt P08253)
[14] = target: Matrix metalloproteinase-14 (Homo sapiens, UniProt P50281); experiment: Inhibition of recombinant human MMP14 using MOCAc-Lys-Pro-Leu-Gly-Leu-A2pr(Dnp)-Ala-Arg-NH2 as substrate preincubated for 15 mins followed by substrate addition by fluroscence based assay
[15] = Half life in fasted Sprague-Dawley rat at 0.4 mg/kg, iv by LC-MS/MS analysis; assay type: ADME, organism-based; conditions: in vivo
Neutrophil collagenase = Neutrophil collagenase (Homo sapiens, UniProt P22894)
[16] = Chemical stability of the compound in acetate buffer at pH 4.0 assessed as residual rate incubated for 2 weeks by HPLC analysis; assay type: physicochemical; conditions: read-out: Stability
physchem [17] = conditions: phosphate buffer, pH 7.4
physchem [18] = conditions: phosphate buffer, pH 9

Sequence of 72 kDa type IV collagenase (P08253 whole entry): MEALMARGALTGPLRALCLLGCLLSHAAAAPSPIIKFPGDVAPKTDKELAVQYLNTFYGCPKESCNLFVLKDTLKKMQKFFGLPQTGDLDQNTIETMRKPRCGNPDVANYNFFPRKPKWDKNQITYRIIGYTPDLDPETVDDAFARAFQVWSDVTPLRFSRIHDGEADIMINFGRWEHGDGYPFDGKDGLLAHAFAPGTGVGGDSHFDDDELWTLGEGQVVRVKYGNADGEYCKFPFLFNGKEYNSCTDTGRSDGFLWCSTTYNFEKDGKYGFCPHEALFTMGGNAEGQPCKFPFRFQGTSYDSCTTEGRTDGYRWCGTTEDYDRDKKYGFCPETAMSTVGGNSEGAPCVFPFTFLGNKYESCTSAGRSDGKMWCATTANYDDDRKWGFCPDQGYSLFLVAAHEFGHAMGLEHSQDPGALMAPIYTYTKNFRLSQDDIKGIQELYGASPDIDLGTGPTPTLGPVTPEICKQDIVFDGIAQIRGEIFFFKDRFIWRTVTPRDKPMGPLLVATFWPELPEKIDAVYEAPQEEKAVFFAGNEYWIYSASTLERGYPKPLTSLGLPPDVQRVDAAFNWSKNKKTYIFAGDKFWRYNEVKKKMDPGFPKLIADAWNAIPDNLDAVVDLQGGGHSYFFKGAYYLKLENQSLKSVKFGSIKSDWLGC
Sequence of Stromelysin-1 (P08254 whole entry): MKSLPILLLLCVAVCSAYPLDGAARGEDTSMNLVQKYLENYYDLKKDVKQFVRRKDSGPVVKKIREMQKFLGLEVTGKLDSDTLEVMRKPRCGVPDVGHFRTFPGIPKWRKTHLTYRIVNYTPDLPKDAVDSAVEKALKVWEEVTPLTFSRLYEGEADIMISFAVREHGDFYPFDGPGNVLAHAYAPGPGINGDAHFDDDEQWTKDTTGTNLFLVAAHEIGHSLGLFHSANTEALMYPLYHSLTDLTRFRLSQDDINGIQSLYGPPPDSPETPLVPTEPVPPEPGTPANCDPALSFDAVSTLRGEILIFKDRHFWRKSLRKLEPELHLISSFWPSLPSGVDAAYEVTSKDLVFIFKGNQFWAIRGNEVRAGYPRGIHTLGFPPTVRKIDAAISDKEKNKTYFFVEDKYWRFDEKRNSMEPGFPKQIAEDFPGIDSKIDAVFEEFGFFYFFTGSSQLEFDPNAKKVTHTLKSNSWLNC
Sequence of MMP-1/MMP-2 (Homo sapiens) (P08253 whole entry, looked up, one chain of several): as the sequence (P08253 whole entry) above
Sequence of Neutrophil collagenase (P22894 whole entry): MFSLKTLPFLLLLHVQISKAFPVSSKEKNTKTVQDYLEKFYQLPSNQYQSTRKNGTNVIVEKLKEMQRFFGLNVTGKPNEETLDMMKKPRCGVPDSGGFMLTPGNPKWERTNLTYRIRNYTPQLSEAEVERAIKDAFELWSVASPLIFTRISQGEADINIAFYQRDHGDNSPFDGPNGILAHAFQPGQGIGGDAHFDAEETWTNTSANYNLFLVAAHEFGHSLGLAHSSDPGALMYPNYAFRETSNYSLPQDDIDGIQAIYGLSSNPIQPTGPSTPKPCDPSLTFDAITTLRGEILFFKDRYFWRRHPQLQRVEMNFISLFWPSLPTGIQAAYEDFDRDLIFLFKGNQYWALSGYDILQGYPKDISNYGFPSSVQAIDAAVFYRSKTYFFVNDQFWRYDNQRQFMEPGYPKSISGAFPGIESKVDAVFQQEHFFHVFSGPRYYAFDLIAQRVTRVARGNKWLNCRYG
Sequence of Matrix metalloproteinase-9 (P14780 whole entry): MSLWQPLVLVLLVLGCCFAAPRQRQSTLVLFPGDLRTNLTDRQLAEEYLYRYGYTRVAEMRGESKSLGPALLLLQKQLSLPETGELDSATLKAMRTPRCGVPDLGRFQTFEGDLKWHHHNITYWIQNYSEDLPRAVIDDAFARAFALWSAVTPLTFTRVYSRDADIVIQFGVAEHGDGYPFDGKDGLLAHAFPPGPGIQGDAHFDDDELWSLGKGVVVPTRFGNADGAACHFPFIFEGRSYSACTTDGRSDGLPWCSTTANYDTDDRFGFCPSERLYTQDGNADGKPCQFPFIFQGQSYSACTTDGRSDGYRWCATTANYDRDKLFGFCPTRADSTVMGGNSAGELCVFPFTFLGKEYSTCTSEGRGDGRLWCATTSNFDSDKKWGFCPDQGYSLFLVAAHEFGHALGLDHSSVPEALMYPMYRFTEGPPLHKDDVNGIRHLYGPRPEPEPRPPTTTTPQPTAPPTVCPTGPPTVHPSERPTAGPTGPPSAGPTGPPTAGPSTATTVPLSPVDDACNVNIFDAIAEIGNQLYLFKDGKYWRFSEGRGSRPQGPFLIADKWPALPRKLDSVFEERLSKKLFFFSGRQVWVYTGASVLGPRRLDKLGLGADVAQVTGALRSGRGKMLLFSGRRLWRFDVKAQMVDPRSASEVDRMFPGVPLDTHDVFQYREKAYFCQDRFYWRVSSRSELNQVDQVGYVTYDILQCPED

`CC(C)C[C@H](NC(=O)[C@H](CCN)NC(=O)[C@H](CC(=O)O)NC(=O)[C@H](CC(N)=O)NC(=O)CCCNS(=O)(=O)c1ccc(Oc2ccccc2)cc1)C(=O)N(C)[C@@H](CCC(=O)O)C(=O)N1CCC[C@H]1CC(N)=O` ({Benzenesulfonyl(4-OPh)-GABA}-ND[Dab]L[NMeE][β3hP]-NH2) showed a Vd [1] of 0.275 L/kg, an IC50 [2] greater than 10000 nM and a clearance [3] of 20.2 mL/min/kg. It also gave an IC50 (Interstitial collagenase) greater than 10000 nM, a Ratio IC50 [4] of 7740 and an IC50 (Stromelysin-1) greater than 10000 nM. The Ratio IC50 (Homo sapiens [5]) was greater than 147000, the remaining at 1 h, 1 µM [6] was 91.7% and the Ratio IC50 (Homo sapiens [7]) was greater than 147000. It also gave a Ratio IC50 (Homo sapiens [8]) of 86500, an IC50 (Matrilysin) greater than 10000 nM and a Ratio IC50 [9] greater than 147000. The Ratio IC50 [10] was greater than 147000, the logD (physchem [11]) was 1.26 and the Ratio IC50 (Homo sapiens [12]) was 7240. The IC50 (Collagenase 3) was 364 nM, the IC50 [13] was 0.068 nM and the IC50 [14] was 526 nM. It also gave a half-life [15] of 9 min and an IC50 (Neutrophil collagenase) of 5880 nM.
`CC[C@H](C)[C@@H](C(=O)N1CCC[C@H]1CC(N)=O)N(C)C(=O)[C@H](CC(C)C)NC(=O)[C@H](C)NC(=O)[C@H](CC(=O)O)NC(=O)[C@H](CC(N)=O)NC(=O)CCCNS(=O)(=O)c1ccc(Oc2ccccc2)cc1` ({Benzenesulfonyl(4-OPh)-GABA}-NDAL[NMeI][β3hP]-NH2) showed a Vd [1] of 0.882 L/kg, an IC50 [2] of 181 nM and a clearance [3] of 74.5 mL/min/kg. The IC50 (Interstitial collagenase) was greater than 10000 nM, the Ratio IC50 [4] was 200 and the IC50 (Stromelysin-1) was greater than 10000 nM. For the same molecule, the Ratio IC50 (Homo sapiens [5]) was greater than 182000, the remaining at 1 h, 1 µM [6] was 68.4% and the Ratio IC50 (Homo sapiens [7]) was 38100. The Ratio IC50 (Homo sapiens [8]) was 4740, the IC50 (Matrilysin) was 2100 nM and the Ratio IC50 [9] was 3290. It also gave a Ratio IC50 [10] of 182000, a logD (physchem [11]) of 1.53 and a Ratio IC50 (Homo sapiens [12]) of 85. The IC50 (Collagenase 3) was 21 nM, the IC50 [13] was 0.055 nM and the IC50 [14] was 11 nM. The half-life [15] was 8 min and the IC50 (Neutrophil collagenase) was 261 nM.
Work on `CC(C)C[C@H](NC(=O)[C@H](CCN)NC(=O)[C@H](CC(=O)O)NC(=O)[C@H](CC(N)=O)NC(=O)CCCCNC(=O)c1ccc(Oc2ccc(C(N)=O)cc2)cc1)C(=O)N(C)[C@@H](CCC(=O)O)C(=O)N1CCC[C@H]1CC(N)=O` ({Benzoyl(4-OPh(4-CONH2))-Ava}-ND[Dab]L[NMeE][β3hP]-NH2) yielded a Vd [1] of 0.267 L/kg, a clearance [3] of 12 mL/min/kg and a remaining at 1 h, 1 µM [6] of 101%. The remaining at 336 h [16] was 95.8%, the remaining at 336 h (physchem [17]) was 89.4% and the remaining at 336 h (physchem [18]) was 78%. The IC50 (Collagenase 3) was 57 nM, the IC50 [13] was 0.051 nM and the half-life [15] was 16 min.
